# From patent US7288527B2, “Inhibition of allergic contact dermatitis by N-L-alpha-aspartyl-L-phenylalanine 1-methyl ester” (priority 2004, dated 2007)
# Residues, ends and D or L forms follow the SMILES beside them.
# What was measured:
# [1] = system: human skin exposed to urushiol (poison sumac, poison ivy); assay: Treatment and prevention of urushiol-induced dermatitis on human skin (Example 3, Patient 1); assay type: in vivo; conditions: topical lotion with 0.5 to 1 mg APM/ml, two to three times per day, also two packets Equal by mouth
# Procedure: The goats frequently consumed and were in contact with both poison sumac and poison ivy abundant in their enclosure without experiencing symptoms.
# A topical APM preparation was made by mixing 2 to 3 packets of Equal® brand sweetner (80-120 mg of APM) with approximately 170 ml (5.5 fluid ounces) of lotion containing Vaseline® Intensive Care® Water Resistant Moisturizing Lotion (Unilever United States, Inc.), resulting in a lotion with 0.5 to 1 mg APM/ml. Patient 1 had previously used the lotion base without effect. Patient 1 also took two packets of Equal® brand sweetener by mouth in response to a symptom of diarrhea, a condition known to be associated with urishiol.
# A soap and water scrub of the affected area was done one hour after application of the cream, and the affected area allowed to air dry.
# Additional affected areas were then discovered on Patient 1, and a lotion was prepared for Patient 1 to use on these areas as well as unaffected areas that could come in contact with poison ivy during their work. Patient 1 used additional topical APM preparation approximately two to three times per day.
# [2] = system: capsaicin burning sensation on the tongue; assay: Treatment of capsaicin irritation of the tongue (Example 6); assay type: in vivo, human; conditions: dry powder, at least about 10 mg APM per 250 microliters of saliva
# Procedure: A person eating spicy food seasoned with peppers is exposed to capsaicin, an irritant oil related to urushiol, causing an uncomfortable burning sensation on the tongue. APM or a derivative thereof is applied to the affected area as a dry powder in the amount of at least about 10 mg APM per 250 microliters of saliva, resulting in relief. Preferably, about 35 to about 80 mg of APM is applied to the area affected.
# [3] = system: human rash secondary to urushiol exposure; assay: Treatment of rash caused by urushiol (Example 4); assay type: in vivo
# Procedure: A human rash, with itching, in progress secondary to contact with an animal known to have had significant exposure to urushiol substances was arrested in 8 hours with 2 applications of aspartame in a Vaseline Intensive Care Lotion base (about 1.2 to 10 mg/ml). The itching ceased, and discomfort and irritation resolved within 8 hours.
# [4] = system: capsaicin burning of the eye; assay: Alleviation of capsaicin burning of the eye (Example 7); assay type: in vivo, human; conditions: about 10 mg per 250 microliters in sterile saline applied to the affected eye
# Procedure: A kitchen worker is exposed to capsaicin oil from peppers during cooking preparation, the oil is transferred to their hands and then, by their hands, to their eyes, resulting in a burning sensation and pain. […] The application may be repeated in 15 min because tearing may dilute or wash away the active ingredients.
# [5] = system: skin which may be exposed to urushiol; assay: Prevention of urushiol-induced dermatitis on human skin (Example 2); assay type: in vivo; conditions: thin film of APM suspended in a petroleum cream base applied before exposure
# Text: To an area of skin which may be exposed to urushiol is applied a thin film of APM suspended in a petroleum cream base.
# [6] = system: skin previously exposed to urushiol; assay: Treatment of allergic contact dermatitis with APM in a cream base (Example 1); assay type: in vivo; conditions: thin film of APM in a cream base; after sixty (60) minutes
# Text: To an area of skin previously exposed to urushiol is applied a thin film of APM in a cream base. […] Further treatment may include washing the affected area to remove and displace urushiol dissolved in the applied lotion and followed by reapplication of APM containing cream or lotion.
# [7] = system: capsaicin burning and pain of mucosa, eyes or nose; assay: APM against inadvertent mucosal contact with capsaicin cream (Example 8); assay type: in vivo, human; conditions: preparation comprising 38 mg of APM per 5 ml applied to the affected area
# Procedure: A patient is treated for arthritis with a capsaicin cream applied twice daily to the affected joint. Capsaicin is absorbed by the transdermal tissue and then transported to joint area. After an appropriate interval, for instance 2-5 days, significant reduction in swelling, heat, redness, and pain is observed. However, the patient also inadvertently contacts his or her urethra, periurethra tissues, vaginal mucosa, rectal mucosa, eyes, or nose with the capsaicin cream, resulting in a sensation of burning and pain in the affected area.
# [8] = cited from earlier work
# [9] = system: capsaicin taste receptor (tongue); assay: Oral application of APM with capsaicin-containing red pepper sauce; assay type: in vivo
# Text: The variability in observable results in preventing dermatitis or topical irritation appear related to the amount of APM that is applied, the time and order of the therapeutic application, and the presence of receptors to which either the irritant oil or APM may bind.
smiles,measurement,setting,value
"COC(=O)[C@H](Cc1ccccc1)NC(=O)[C@@H](N)CC(=O)O [APM, N-L-alpha-aspartyl-L-phenylalanine 1-methyl ester] (H-Asp-Phe-OMe)",rash or reaction observed on the day after application,[1],no rash or reaction had occurred
same,burning sensation on the tongue,[2],relief
same,time to arrest of rash with itching,[3]; 2 applications of aspartame in Vaseline Intensive Care Lotion base (about 1.2 to 10 mg/ml),8 h
same,time until itching ceased and discomfort and irritation resolved,"[3]; 2 applications, lotion base about 1.2 to 10 mg/ml",≤ 8 h
same,state of rash overnight,"[3]; overnight after 2 applications, lotion base about 1.2 to 10 mg/ml",the rash was gone
same,burning sensation of the eye,[4],the burning sensation is alleviated
same,symptoms of allergic contact dermatitis (prophylactic use),[5],either do not appear or are significantly reduced
same,symptoms of allergic contact dermatitis,[6],significantly reduced
same,burning and pain in the affected area,[7],reducing or eliminating the burning and pain
same,maximum solubility in water,[8]; pH 2.2,20 mg/mL
same,minimum solubility in water,[8]; pH 5.2,13.5 mg/mL
same,APM response after long exposure to capsaicin,[9]; long duration of exposure to capsaicin leading to secondary effects,not as strong nor as quick
same,recognition of spicyness of red pepper sauce,[9]; oral application of APM before red pepper sauce,absence of recognition of the spicyness
same,effect on developed sensations of heat and irritation,"[9]; red pepper sauce applied to the tongue first, APM applied after",displacement by APM of capsaicin from the taste receptor is manifested and recognized quickly
